Here are results for two compounds from publication PMC5764437, “Discovery of novel, orally bioavailable, antileishmanial compounds using phenotypic screening” (PLoS Neglected Tropical Diseases, 2017).

Data set [1] deals with Caco-2 cells. Put plainly: Caco-2 permeability assay. It is filed as in vitro ADME. The settings on record: predicted from solubility and membrane permeability.
A short description of data set [2]: Liver microsomal stability, rat. The settings on record: liver microsomes, pH 7.4. As to the method:
(§1) One part of 10 mM DMSO compound stock was mixed with 4 parts of acetonitrile to make 2 mM diluted compound stock in DMSO and acetonitrile. 29.1 µL diluted compound stock was added to 2.3 mL liver microsomal solution and vortexed to make microsomal solution with compound. […] For the 0 h time point, 450 µL pre-cooled (4 °C) internal standard (10 µM warfarin in methanol) was added to the first three columns before the reaction was initiated. 1.25 ml of microsome assay solution A (Fisher Scientific, #NC9255727) was combined with 0.25 ml of solution B (Fisher Scientific, #NC9016235) in 3.5 ml of potassium phosphate buffer (0.1 M, pH 7.4). 45 µL of this A+B solution was added to each well of the 96-well storage plate (reaction plate). Liquid in the first 3 columns was moved to another storage plate (quenched plate). The reaction plate was then sealed, incubated at 37 °C, and shaken at a speed of 60 rpm. Time points (0.5 h, 1 h, 2 h) were taken. At each time point, 450 µL pre-cooled internal standard was added to 3 rows in the reaction plate, and the liquid was then transferred to the quenched plate. […] 200 µL supernatant was transferred to a 96-well plate and analyzed by ultra-performance liquid chromatography-mass spectrometry (UPLC-MS) (Waters Inc.). The compounds and internal standard were detected by selected ion recording (SIR).

The nature of data set [3]: Liver microsomal stability, mouse. The settings on record: female, liver microsomes, pH 7.4. As to the method:
as §1
A general note: Liver microsomes are vesicles of endoplasmic reticulum, rich in cytochrome P450 enzymes.

Data set [4] concerns bloodstream form Lister 427 T. brucei. Briefly: Growth inhibition of T. brucei bloodstream forms (SYBR Green I). The conditions noted are these: Trypanosoma brucei, bloodstream form; mean ± standard deviation, n = 2; read-out: T. brucei EC50. The data set is classed as cell-based. On the procedure:
L. mexicana (MNYZ/BZ/62/M379) or L. donovani (LdBob strain) parasites expressing the Renilla luciferase gene from a rRNA gene locus were used to infect J774A.1 macrophages. Growth of intracellular amastigotes was measured using a luminescence assay, as detailed previously. The growth inhibitor activities of compounds were tested against bloodstream form Lister 427 T. brucei in 96-well plates containing 1 X 10^5 parasites per well in 0.2 ml HMI-11 medium (Gibco/Thermo Fisher). Compounds (2 μl volumes in DMSO) were added to the parasites using serial 3-fold dilutions to cover a range of concentrations from about 10 μM to 1 nM. After 48 h incubation at 37°C under a humidified 5% CO2 atmosphere, 10 μl of 10% Triton X-100 and 100 X stock SYBR Green I (Sigma-Aldrich) in PBS was added and florescence measured (excitation 497 nm; emission 520 nm) after 1 h incubation in the dark using a Spectra Max Gemini XPS fluorimeter (Molecular Devices). Data were log transformed and EC50 values were determined using GraphPad Prism 6 (GraphPad Software). In the absence of growth inhibiting compounds, the parasites grew from an initial density of 5 X 10^5 cells/mL to ~3 X 10^6 cells/mL.

Data set [5] can be described thus: Single oral dose pharmacokinetic study in mice. The data set is classed as in vivo, mouse. The settings on record: single oral gavage; for half-life: read-out: t½ (converted). On the procedure: Female BALB/c mice of 17-21 grams were purchased from Charles River Laboratories (Wilmington, MA). Food and water were provided ad libitum. […] All animal received 100 ± 20 µL of compound solution in formulation (10/10/40/40: […] Animals were euthanized via cardiac puncture at 48 h post injection. Blood samples were treated with 10 µL of EDTA sodium solution to prevent coagulation. […] The supernatant (40 µL) was collected and mixed with 2 parts of Milli-Q water and centrifuged again at 4000 rpm for 20 min at 4 °C. Plasma concentration was determined with a partially validated LC/MS-MS assay with multiple reaction monitoring detection (AB Sciex, Framingham, MA). The summary of the LC/MS/MS method is provided below. The assay lower limit of quantification (LLOQ) was 4.57 nM in plasma. […] The Area Under the Concentration-Time Curve (AUC) was calculated with the linear trapezoidal, linear interpolation rule using mean concentrations and nominal times. The standard error of the AUC to the last time point (AUClast) was generated using the sparse sampling option. The terminal elimination rate (Lambda_z) and half-life (HL_Lambda_z) was determined using the default “Best Fit” method. The predicted AUC from the last time point to infinity (AUCINF_pred) was calculated as AUClast plus Clast(pred)/Lambda_z. Clearance (CL or CL/F) was calculated as Dose/AUCINF_pred. If ≥2/3rds of the observed concentrations were below LLOQ, the mean concentration was treated missing. The calibration curve was obtained as follows. The calibration was done using the same biological matrices to ensure similar recovery. […] All concentrations in the calibration range must be no more than 20% deviation. If there were any points with more than 20% deviation on the high or low end, the calibration range would be truncated. If an outlier occurred in the middle of the curve, the whole curve would be re-done. The signal: noise of the compound peak at the H/LLOQ must be greater than 5. […] The samples were tested on the same or the second day.

The subject of data set [6] is bloodstream form Lister 427 T. brucei. The arrangement: method as in PMID 23484493. The conditions noted are these: bloodstream form of Trypanosoma brucei; read-out: T. brucei bloodstream form EC50 (previously reported); cited from earlier work.
The nature of data set [7]: Dose-ranging tolerability / 10-day toxicity study in mice. It is filed as in vivo, mouse. The settings on record: oral, 30 mg/kg.
The mark [8] stands for this setting: female, BALB/c, mouse, plasma, po, 25 mg/kg.
The mark [9] stands for this setting: female, BALB/c, mouse, plasma, po, 50 mg/kg.

Entries after “also recorded” stand apart in the source; their conditions may differ. Read-outs that look alike come from different tables or passages of the source.

In the case of `COc1ccc(-c2c(C(F)(F)F)oc3c(CN4CCN(C)CC4)c(O)ccc3c2=O)cc1OC` [Compound 4], in data set [1], the “Predicted absorption across the intestinal epithelium” value is given as ~ 85%. Besides, the half-life at 20 μM in data set [2] was > 4 h. Further, the half-life at 20 μM in data set [3] is > 4 h. Moreover, in data set [4], the EC50 (in general, the concentration giving half of the maximal effect) worked out at 11 ± 1 µM. Besides, in data set [5] (setting [8]), the Cmax (as a rule, the peak of the concentration-time curve) was 3.2 µM and the Tmax – broadly, the time at which the peak concentration occurs – is ≤ 1 h. Moreover, in data set [5] (female, BALB/c, mouse, plasma, po, 25 mg/kg, 25 mg/kg, plasma), the half-life is 3 h. Besides, the AUC (usually concentration integrated over time) in data set [5] (female, BALB/c, mouse, 25 mg/kg, plasma) came to 16.7 µM·h. In data set [5] (25 mg/kg), this compound came in with a CL of 3.13 L/h/kg and a Vd of 14.2 L/kg. The t½ (commonly the time needed for the level to fall by half in the phase considered) in data set [5] (25 mg/kg, plasma) stood at 3.2 h.

As to `Cc1ccc(-c2nc3ccccc3s2)cc1NC(=O)c1cc([N+](=O)[O-])c(N2CCN(C)CC2)cc1Cl` [Compound 5], the EC50 in data set [6] is 0.027 µM. The half-life at 20 μM in data set [2] was > 4 h. Further, the “Tolerability (weight loss, appetite, other toxicity)” value in data set [7] is recorded as “suppressed appetite was resolved by dose reduction to 30 mg/kg; also recorded: No weight loss or other toxicity was observed”. Also, the half-life at 20 μM in data set [3] is > 4 h. In addition, in data set [5] (setting [9]), the concentration peaked (Cmax) at 6.49 µM and the Tmax came out at 4 h. Besides, in data set [5] (female, BALB/c, mouse, plasma, po, 50 mg/kg, 50 mg/kg, plasma), the half-life is 7.1 h. The AUC in data set [5] (female, BALB/c, mouse, 50 mg/kg, plasma) came to 83.2 µM·h. In data set [5] (50 mg/kg), this compound showed a CL of 1.15 L/h/kg and a Vd of 11.8 L/kg. The same compound displayed a Cmax in data set [5] (50 mg/kg, plasma) of 6.5 µM.
